{
  "source": "patent US11390644B2",
  "about": "“Raman tag” (Purdue Research Foundation, priority 2014, dated 2022)",
  "key": {"CHO cells [1]": {"test_system": "CHO cells", "assay": "MTT cell-viability assay of tagged cholesterols", "assay_type": "cell-based, Chinese hamster", "procedure": "(§1) Referring now to FIG. 3, the cytotoxicity of cholesterol mimics was evaluated by MTT cell-viability assays after treating CHO cells with cholesterol mimic. Various concentrations of cholesterol mimic were added to the culture media and the cells were incubated for 48 hours before the assays were conducted. […] Adding a phenyl group reduced the cytotoxicity. To directly visualize the toxic effect, we stained the cells with propidium iodide for late apoptosis and necrosis.\n(§2) To evaluate the cytotoxicity of tagged cholesterols, we performed MTT cell-viability assays after treating CHO cells with tagged cholesterol. […] To directly visualize the toxic effect, we stained the cells with propidium iodide for late apoptosis and necrosis. […] Based on the signal level and the severity of toxicity, we conclude that PhDY-Chol is the most suitable cholesterol probe for live cell imaging, and we used PhDY-Chol in subsequent experiments.\n(§3) CHO cells were grown in 96-well plates with density of 4000 cells per well. The next day, the cells were treated with each cholesterol probe at the indicated concentrations for 48 h. Cell-viability was measured with the MTT colorimetric assay (Sigma)."}, "[2]": {"assay": "MTT cell-viability assay of tagged cholesterols", "assay_type": "cell-based, Chinese hamster", "details": "Chinese hamster; CHO cells, 48 h incubation; read-out: IC50 (cytotoxicity, MTT cell viability)", "procedure": "as §1, §2, §3"}, "CHO cells [3]": {"test_system": "CHO cells", "assay": "Propidium iodide staining for late apoptosis and necrosis", "assay_type": "cell-based, Chinese hamster", "details": "30 μM, 24 h", "procedure": "as §1\nas §2, with “cholesterol. Various concentrations of tagged cholesterol were added to the culture media and the cells were incubated for 48 h before the assays were conducted.” for “cholesterol.”\nPropidium iodide was used to stain late apoptotic or necrotic cells. CHO cells were incubated with 30 μM of tagged cholesterol molecules for 24 h. The propidium iodide staining was performed following protocols provided by the manufacturer (Life Technologies)."}, "ACAT-1": {"biological_target": "T1, ACAT-1 (Cricetulus griseus, UniProt Q60457)", "T1 construct": "endogenous in cells; host or cells: CHO-K1 cells", "T1 sequence (Q60457 1-546)": "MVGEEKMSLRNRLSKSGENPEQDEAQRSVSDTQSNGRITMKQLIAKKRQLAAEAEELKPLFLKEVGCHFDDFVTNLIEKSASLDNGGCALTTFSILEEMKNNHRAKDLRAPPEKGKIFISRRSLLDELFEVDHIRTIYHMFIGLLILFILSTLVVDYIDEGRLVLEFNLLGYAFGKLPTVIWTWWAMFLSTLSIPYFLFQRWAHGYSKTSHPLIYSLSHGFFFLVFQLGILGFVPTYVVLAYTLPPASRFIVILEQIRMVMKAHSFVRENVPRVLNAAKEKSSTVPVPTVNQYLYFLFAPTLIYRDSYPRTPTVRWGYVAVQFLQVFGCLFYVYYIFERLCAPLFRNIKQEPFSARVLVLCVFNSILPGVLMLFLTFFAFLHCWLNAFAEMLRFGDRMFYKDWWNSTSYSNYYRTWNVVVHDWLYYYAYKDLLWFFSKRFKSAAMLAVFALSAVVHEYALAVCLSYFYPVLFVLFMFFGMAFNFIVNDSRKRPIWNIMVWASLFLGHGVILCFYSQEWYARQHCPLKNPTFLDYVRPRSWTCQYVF", "assay": "ACAT-1 inhibition (avasimibe) blocking probe storage into lipid droplets", "assay_type": "cell-based, Chinese hamster", "details": "CHO cells", "procedure": "(§4) It is hypothesized that PhDY-Chol is converted into PhDY-cholesteryl ester, by ACAT-1, the enzyme responsible for cholesterol esterification, as diagrammed in FIG. 4. To confirm the esterification of PhDY-Chol, we inhibited ACAT-1 with avasimibe for 24 h before addition of PhDY-Chol. […] Although LDs were still visible, the amount of PhDY-Chol signal found inside LDs reduced by 4 times (FIG. 4d). […] To determine where PhDY-Chol accumulates after ACAT-1 inhibition, we stained the cells with LysoTracker for lysosomes. […] To emphasize the physiological compatibility of our PhDY tag, we treated CHO cells with BODIPY-cholesterol.\nas §4, with “important to note that PhDY-Chol-rich structures inside the CHO cells could not be stained by filipin (FIG. 10b), implicating that it is not in the free form. We hypothesize” for “hypothesized”, “esterification (FIG. 4b).” for “esterification, as diagrammed in FIG. 4.”\nACAT-1 inhibition was used to block cholesterol esterification either by adding a potent ACAT inhibitor, avasimibe, or by RNA interference with ACAT-1 shRNA plasmid. […]\n(§5) To quantify PhDY-rich area, we first selected one cell and used “Threshold” function to select PhDY-rich cellular regions using ImageJ. […] To quantify PhDY-rich LDs, “Image Calculator” function in ImageJ was used to multiply SRS image of PhDY-Chol by TPEF image of BODIPY. Then, after using “Threshold” function to select PhDY-rich LDs, the number of PhDY-rich LDs was counted by “Analyze Particles” function. For each group, 7 cells were analyzed, and results were shown as mean±standard deviation (SD). […]"}, "[4]": {"assay": "Photostability under continuous SRS / TPEF image acquisition", "assay_type": "physicochemical", "details": "50 mM solution, acquired continuously for 150 s, one acquisition every 30 s", "procedure": "FIG. 14. The photostability of PhDY-Chol and the photo-bleaching of BODIPY-Chol. The SRS images of 50 mM PhDY-Chol solution and TPEF images of 50 mM BODIPY-Chol solution were acquired continuously for 150 s (one acquisition every 30 s)."}, "M12 cells": {"test_system": "M12 cells", "assay": "HPβCD treatment of PhDY-Chol-labeled M12 cells", "assay_type": "cell-based, Chinese hamster", "details": "HPβCD 500 μM, 30 h", "from_the_text": "(§6) We then treated the PhDY-Chol-labeled M12 cells with a cholesterol-mobilizing drug, hydroxypropyl-β-cyclodextrin (HPβCD). This drug is known to mediate lysosomal escape of cholesterol, and promote storage of excess cholesterol into LDs. […] These areas likely represent PhDY-cholesteryl ester stored in LDs. To confirm this possibility, we stained the cells with BODIPY for localization of LDs.\nas §6, with “drug, HPβCD^40.” for “drug, hydroxypropyl-β-cyclodextrin (HPβCD).”, “into LDs^41.” for “into LDs.”\nHPβCD was used as a drug treatment of NP-C disease. M12 cells were incubated with PhDY-Chol for 16 h as described above. […]\nas §5"}},
  "note": "“Also recorded” adds a separate entry of the source.",
  "data": [
    {"compound": "C#CCC[C@@H](C)[C@H]1CC[C@H]2[C@@H]3CC=C4C[C@@H](O)CC[C@]4(C)[C@H]3CC[C@]12C", "note": "[A-Chol, alkyne cholesterol]", "values": [
      {"measurement": "cytotoxicity in MTT cell-viability assay", "setting": "CHO cells [1]; CHO cells, various concentrations, 48 h", "result": "toxic to the cells"},
      {"measurement": "IC50 at 48 h", "setting": "[2]", "result": 16, "unit": "µM"},
      {"measurement": "late apoptosis and necrosis, propidium iodide staining", "setting": "CHO cells [3]", "result": "reduced density and extensive apoptosis"},
      {"measurement": "late apoptosis and necrosis, propidium iodide staining", "setting": "CHO cells [3]; listed as alkyne-cholesterol", "result": "induces apoptosis and necrosis"}
    ]},
    {"compound": "CC1=CC(C)=[N+]2C1=C(CC[C@@H](C)[C@H]1CC[C@H]3[C@@H]4CC=C5C[C@@H](O)CC[C@]5(C)[C@H]4CC[C@]13C)c1c(C)cc(C)n1[B-]2(F)F", "note": "[BODIPY-cholesterol, reference compound]", "values": [
      {"measurement": "amount of probe incorporated into LDs after ACAT-1 inhibition", "setting": "ACAT-1; ACAT-1 inhibited vs control", "result": "did not change; also recorded: no difference between the two groups"},
      {"measurement": "photostability / photo-bleaching of signal", "setting": "[4]", "result": "rapid photo-bleaching"}
    ]},
    {"compound": "C[C@H](CCC#Cc1ccccc1)[C@H]1CC[C@H]2[C@@H]3CC=C4C[C@@H](O)CC[C@]4(C)[C@H]3CC[C@]12C", "note": "[PhA-Chol, phenyl-alkyne cholesterol]", "values": [
      {"measurement": "late apoptosis and necrosis, propidium iodide staining", "setting": "CHO cells [3]", "result": "minimum cell death"}
    ]},
    {"compound": "C[C@H](CCC#CC#Cc1ccccc1)[C@H]1CC[C@H]2[C@@H]3CC=C4C[C@@H](O)CC[C@]4(C)[C@H]3CC[C@]12C", "note": "[PhDY-Chol, phenyl-diyne cholesterol]", "values": [
      {"measurement": "cytotoxicity", "setting": "CHO cells [1]; 16 h incubation at 50 μM", "result": "did not cause cytotoxicity"},
      {"measurement": "reduction of probe signal found inside LDs after ACAT-1 inhibition", "setting": "ACAT-1; avasimibe 10 μM 24 h pre-treatment", "result": 4, "unit": "times"},
      {"measurement": "localization after ACAT-1 inhibition (LysoTracker staining)", "setting": "ACAT-1; avasimibe treatment", "result": "partially located in lysosomes"},
      {"measurement": "late apoptosis and necrosis, propidium iodide staining", "setting": "CHO cells [3]", "result": "minimum cell death"},
      {"measurement": "photostability / photo-bleaching of signal", "setting": "[4]", "result": "No significant change of the SRS signal"}
    ]},
    {"compound": "hydroxypropyl-β-cyclodextrin [HPβCD]", "values": [
      {"measurement": "amount of PhDY-Chol in M12 cells after treatment", "setting": "M12 cells", "result": "decreased by half"},
      {"measurement": "number of PhDY-rich LDs after treatment", "setting": "M12 cells; BODIPY staining", "result": "increased significantly"}
    ]}
  ]
}
